Laboratory results published in US20080009418A1, “Selective Inhibitors” (Alchemia LTD., priority 2004, published 2008).

Assays:
Human δ-opioid (DOP) = target: T1, Human δ-opioid (DOP) (Homo sapiens, UniProt P41143); assay: Radioligand binding, human δ-opioid (DOP) membranes, FlashPlate, [3H]-Bremazocine; settings: compound at 10 μM; [3H]-Bremazocine, human DOP membranes
T1 construct: purchased Perkin Elmer Biosignal
Method in brief: (§1)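 Cloned human receptor membranes were coated onto FlashPlate wells and incubated with radioligand and compound (added from a 0.5 mM DMSO daughter plate) for 1 hour at room temperature in the dark. Scintillation counting gave percent inhibition, with DMSO defining total and reference ligand defining non-specific binding.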

Human κ-Opioid (KOP) = target: T2, Human κ-Opioid (KOP) (Homo sapiens, UniProt P41145); assay: Radioligand binding, human κ-opioid (KOP) membranes, filtration, [3H]-Diprenorphine; settings: compound at 10 μM; [3H]-Diprenorphine, human KOP membranes
T2 construct: purchased Perkin Elmer Biosignal
T2 sequence (P41145 whole entry): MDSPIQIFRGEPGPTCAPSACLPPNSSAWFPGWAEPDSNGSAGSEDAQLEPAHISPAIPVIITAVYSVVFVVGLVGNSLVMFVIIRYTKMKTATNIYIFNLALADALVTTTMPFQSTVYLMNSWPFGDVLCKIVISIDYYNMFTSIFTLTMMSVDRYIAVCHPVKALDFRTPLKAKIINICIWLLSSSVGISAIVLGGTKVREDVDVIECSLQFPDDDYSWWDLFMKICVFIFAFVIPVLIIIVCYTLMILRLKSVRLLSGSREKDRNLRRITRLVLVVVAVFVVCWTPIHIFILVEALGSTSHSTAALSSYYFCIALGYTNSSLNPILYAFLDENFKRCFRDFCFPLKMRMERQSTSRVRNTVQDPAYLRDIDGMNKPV
Method in brief: (§2)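 Percent inhibition of radioligand binding measured on recombinant human membranes: NK1 with [125I]-Substance P, KOP with [3H]-Diprenorphine. Incubation 1 h at room temperature, then harvest onto 0.3% PEI-soaked filters, cold Tris-HCl pH 7.4 washes and scintillation counting; non-specific binding from reference ligand wells.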

Human Melanocortin (MC3) = target: T3, Human Melanocortin (MC3) (Homo sapiens, UniProt P41968); assay: Radioligand binding, human melanocortin MC3 membranes, FlashPlate, [125I]-NDP-αMSH; settings: compound at 10 μM; [125I]-NDP-αMSH, human MC3 membranes
T3 construct: purchased Perkin Elmer Biosignal
T3 sequence (P41968 whole entry): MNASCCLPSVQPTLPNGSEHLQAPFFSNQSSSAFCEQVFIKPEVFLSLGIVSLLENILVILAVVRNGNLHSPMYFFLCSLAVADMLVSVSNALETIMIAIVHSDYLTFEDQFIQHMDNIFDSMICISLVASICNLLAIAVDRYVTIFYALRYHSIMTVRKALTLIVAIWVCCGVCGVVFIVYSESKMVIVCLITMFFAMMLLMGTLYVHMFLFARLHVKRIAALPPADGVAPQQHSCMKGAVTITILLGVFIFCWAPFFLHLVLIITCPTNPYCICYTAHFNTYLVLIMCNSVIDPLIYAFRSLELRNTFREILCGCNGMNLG
Method in brief: as §1

Human Melanocortin (MC4) = target: T4, Human Melanocortin (MC4) (Homo sapiens, UniProt P32245); assay: Radioligand binding, human melanocortin MC4 membranes, FlashPlate, [125I]-NDP-αMSH; settings: compound at 10 μM; [125I]-NDP-αMSH, human MC4 membranes
T4 construct: purchased Perkin Elmer Biosignal
T4 sequence (P32245 whole entry): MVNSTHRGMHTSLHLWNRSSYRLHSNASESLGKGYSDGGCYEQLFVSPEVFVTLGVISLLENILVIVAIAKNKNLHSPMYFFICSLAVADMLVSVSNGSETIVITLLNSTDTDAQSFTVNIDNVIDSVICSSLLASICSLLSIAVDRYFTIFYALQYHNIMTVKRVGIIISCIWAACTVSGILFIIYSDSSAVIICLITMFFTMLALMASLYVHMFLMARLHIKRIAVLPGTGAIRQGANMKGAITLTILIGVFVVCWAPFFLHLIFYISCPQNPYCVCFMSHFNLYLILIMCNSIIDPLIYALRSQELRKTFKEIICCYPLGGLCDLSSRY
Method in brief: as §1

Human melanocortin (MC5) = target: T5, Human melanocortin (MC5) (Homo sapiens, UniProt P33032); assay: Radioligand binding, human melanocortin MC5 membranes, FlashPlate, [125I]-NDP-αMSH; settings: compound at 10 μM; [125I]-NDP-αMSH, human MC5 membranes
T5 construct: purchased Perkin Elmer Biosignal
T5 sequence (P33032 whole entry): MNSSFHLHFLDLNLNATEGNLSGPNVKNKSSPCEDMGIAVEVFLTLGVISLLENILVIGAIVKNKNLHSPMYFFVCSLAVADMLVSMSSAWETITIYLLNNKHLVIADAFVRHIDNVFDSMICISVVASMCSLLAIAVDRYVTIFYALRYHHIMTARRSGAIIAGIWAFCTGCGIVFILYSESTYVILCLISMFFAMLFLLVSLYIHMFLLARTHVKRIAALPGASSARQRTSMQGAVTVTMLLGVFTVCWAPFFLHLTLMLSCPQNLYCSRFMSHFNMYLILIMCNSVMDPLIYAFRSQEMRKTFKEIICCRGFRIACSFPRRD
Method in brief: as §1

[1] = target: T6, Human melanin-concentrating hormone (MCH1) (Homo sapiens, UniProt Q99705); assay: Radioligand binding, human melanin-concentrating hormone MCH1 membranes, FlashPlate, [125I]-S36057; settings: compound at 10 μM; [125I]-S36057, human MCH1 membranes
T6 construct: purchased Perkin Elmer Biosignal
T6 sequence (Q99705 whole entry): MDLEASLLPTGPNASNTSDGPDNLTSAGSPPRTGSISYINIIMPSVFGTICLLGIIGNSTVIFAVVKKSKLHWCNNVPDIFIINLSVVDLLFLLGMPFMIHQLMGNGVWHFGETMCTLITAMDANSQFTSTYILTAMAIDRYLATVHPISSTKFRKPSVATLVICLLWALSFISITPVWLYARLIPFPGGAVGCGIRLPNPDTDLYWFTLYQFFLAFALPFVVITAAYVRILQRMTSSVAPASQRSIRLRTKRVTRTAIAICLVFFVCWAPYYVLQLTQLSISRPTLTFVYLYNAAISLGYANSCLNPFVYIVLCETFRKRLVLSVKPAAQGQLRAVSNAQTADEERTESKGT
Method in brief: as §1

Human μ-opioid (MOP) = target: T7, Human μ-opioid (MOP) (Homo sapiens, UniProt P35372); assay: Radioligand binding, human μ-opioid (MOP) membranes, FlashPlate, [3H]-Naloxone; settings: compound at 10 μM; [3H]-Naloxone, human MOP membranes
T7 construct: purchased Perkin Elmer Biosignal
T7 sequence (P35372 whole entry): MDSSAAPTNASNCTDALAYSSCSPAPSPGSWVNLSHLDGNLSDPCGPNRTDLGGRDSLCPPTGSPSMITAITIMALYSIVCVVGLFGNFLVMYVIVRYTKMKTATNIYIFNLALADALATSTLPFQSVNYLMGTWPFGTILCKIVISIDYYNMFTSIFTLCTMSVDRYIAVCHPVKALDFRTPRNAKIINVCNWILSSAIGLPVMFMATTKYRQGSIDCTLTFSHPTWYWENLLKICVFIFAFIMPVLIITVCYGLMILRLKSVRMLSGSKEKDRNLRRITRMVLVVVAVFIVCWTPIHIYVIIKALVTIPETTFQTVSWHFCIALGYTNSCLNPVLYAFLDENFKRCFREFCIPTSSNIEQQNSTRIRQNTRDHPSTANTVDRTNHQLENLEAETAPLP
Method in brief: as §1

Human neurokinin (NK1) = target: T8, Human neurokinin (NK1) (Homo sapiens, UniProt P25103); assay: Radioligand binding, human neurokinin NK1 membranes, filtration, [125I]-Substance P; settings: compound at 10 μM; [125I]-Substance P, human NK1 membranes
T8 construct: purchased Perkin Elmer Biosignal
T8 sequence (P25103 whole entry): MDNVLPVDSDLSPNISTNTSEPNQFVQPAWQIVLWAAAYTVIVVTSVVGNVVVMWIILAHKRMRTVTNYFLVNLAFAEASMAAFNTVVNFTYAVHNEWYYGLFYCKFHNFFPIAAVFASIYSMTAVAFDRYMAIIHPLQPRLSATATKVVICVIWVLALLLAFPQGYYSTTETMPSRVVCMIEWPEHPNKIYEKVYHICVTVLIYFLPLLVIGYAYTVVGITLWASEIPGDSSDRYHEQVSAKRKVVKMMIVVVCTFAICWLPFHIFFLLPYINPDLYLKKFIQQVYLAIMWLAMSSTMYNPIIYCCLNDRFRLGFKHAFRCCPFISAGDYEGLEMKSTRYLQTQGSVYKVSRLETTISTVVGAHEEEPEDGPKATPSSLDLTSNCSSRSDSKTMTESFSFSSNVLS
Method in brief: as §2

[2] = target: T9, Human neuropeptide Y (NPY-Y1) (Homo sapiens, UniProt P25929); assay: Radioligand binding, human neuropeptide Y NPY-Y1 membranes, FlashPlate, [125I]-PYY; settings: compound at 10 μM; [125I]-PYY, human NPY-Y1 membranes
T9 construct: purchased Perkin Elmer Biosignal
T9 sequence (P25929 1-384): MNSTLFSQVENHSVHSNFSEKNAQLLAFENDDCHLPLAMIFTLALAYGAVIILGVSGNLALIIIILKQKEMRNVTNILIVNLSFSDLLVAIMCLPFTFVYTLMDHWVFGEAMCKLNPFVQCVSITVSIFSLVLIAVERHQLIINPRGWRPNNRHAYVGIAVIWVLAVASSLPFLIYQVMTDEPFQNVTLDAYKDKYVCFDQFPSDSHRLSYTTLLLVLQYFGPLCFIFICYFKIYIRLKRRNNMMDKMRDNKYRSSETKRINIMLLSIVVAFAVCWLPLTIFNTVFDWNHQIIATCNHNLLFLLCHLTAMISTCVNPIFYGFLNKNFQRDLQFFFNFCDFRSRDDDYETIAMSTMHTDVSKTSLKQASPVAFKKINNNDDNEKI
Method in brief: as §1

Human opioid (ORL1) = target: T10, Human opioid (ORL1) (Homo sapiens, UniProt P41146); assay: Radioligand binding, human opioid ORL1 membranes, FlashPlate, [125I]-Nociceptin; settings: compound at 10 μM; [125I]-Nociceptin, human ORL1 membranes
T10 construct: purchased Perkin Elmer Biosignal
T10 sequence (P41146 whole entry): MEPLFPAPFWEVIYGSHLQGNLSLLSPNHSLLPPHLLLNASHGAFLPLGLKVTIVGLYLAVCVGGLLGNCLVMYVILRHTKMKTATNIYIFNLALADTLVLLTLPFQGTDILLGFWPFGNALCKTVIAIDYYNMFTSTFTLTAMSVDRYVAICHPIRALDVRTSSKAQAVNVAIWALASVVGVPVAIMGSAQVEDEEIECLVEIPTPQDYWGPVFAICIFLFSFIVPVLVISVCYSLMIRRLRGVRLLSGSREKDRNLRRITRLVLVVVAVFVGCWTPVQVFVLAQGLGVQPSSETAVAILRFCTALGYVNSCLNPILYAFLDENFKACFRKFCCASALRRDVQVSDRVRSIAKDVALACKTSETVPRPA
Method in brief: as §1

Mouse urotensin (mUR2) = target: T11, Mouse urotensin (mUR2) (Mus musculus, UniProt Q8VIH9); assay: Radioligand binding, mouse urotensin mUR2 membranes, FlashPlate, [125I]-Urotensin II; settings: compound at 10 μM; [125I]-Urotensin II, mouse mUR2 membranes
T11 construct: purchased Perkin Elmer Biosignal
T11 sequence (Q8VIH9 1-385): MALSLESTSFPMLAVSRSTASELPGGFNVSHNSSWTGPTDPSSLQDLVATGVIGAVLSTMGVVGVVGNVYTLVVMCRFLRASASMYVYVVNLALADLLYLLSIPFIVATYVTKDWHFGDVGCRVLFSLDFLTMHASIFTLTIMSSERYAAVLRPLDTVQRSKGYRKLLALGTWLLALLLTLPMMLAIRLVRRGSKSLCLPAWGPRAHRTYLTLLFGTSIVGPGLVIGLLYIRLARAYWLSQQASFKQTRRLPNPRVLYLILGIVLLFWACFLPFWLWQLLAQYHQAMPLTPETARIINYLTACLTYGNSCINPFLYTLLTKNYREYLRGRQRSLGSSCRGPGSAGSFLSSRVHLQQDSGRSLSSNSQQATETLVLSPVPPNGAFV
Method in brief: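 Cloned mouse urotensin (mUR2) receptor membranes from Perkin Elmer Biosignal were immobilized in FlashPlate microplates using a proprietary coating. Each well got 19.5 μl buffer, then 0.5 μl of DMSO, reference ligand, or compound. Adding 5 μl of [125I]-Urotensin II, diluted to 5× final concentration in binding buffer, started binding. Plates were sealed with TopSeal-A and incubated 1 hour at room temperature in the dark. Wells were counted for 30 seconds each on a TopCount after a 60-second delay, and percentage inhibition was calculated.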

T1 sequence (P41143 whole entry): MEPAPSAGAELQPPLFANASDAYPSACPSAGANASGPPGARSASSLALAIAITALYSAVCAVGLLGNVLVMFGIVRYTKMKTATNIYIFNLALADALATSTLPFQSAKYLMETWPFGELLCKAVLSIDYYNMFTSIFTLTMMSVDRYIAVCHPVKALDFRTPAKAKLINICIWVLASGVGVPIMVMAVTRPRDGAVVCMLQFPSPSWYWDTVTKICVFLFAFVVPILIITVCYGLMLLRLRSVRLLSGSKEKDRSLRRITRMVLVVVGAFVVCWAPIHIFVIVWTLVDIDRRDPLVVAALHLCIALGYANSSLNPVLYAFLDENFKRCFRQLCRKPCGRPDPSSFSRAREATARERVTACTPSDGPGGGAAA

Row | Compound | A1: inhibition of radioligand binding (Human δ-opioid (DOP)) | A2: inhibition of radioligand binding (Human κ-Opioid (KOP)) | A3: inhibition of radioligand binding (Human Melanocortin (MC3)) | A4: inhibition of radioligand binding (Human Melanocortin (MC4)) | A5: inhibition of radioligand binding (Human melanocortin (MC5)) | A6: inhibition of radioligand binding [1] | A7: inhibition of radioligand binding (Human μ-opioid (MOP)) | A8: inhibition of radioligand binding (Human neurokinin (NK1)) | A9: inhibition of radioligand binding [2] | A10: inhibition of radioligand binding (Human opioid (ORL1)) | A11: inhibition of radioligand binding (Mouse urotensin (mUR2))
1 | N=C(N)NCC(=O)NC1C(OCc2ccc(Cl)cc2)OC(COCc2ccccc2)C(O)C1OCc1ccc(Cl)cc1 (stereo not shown) [compound 418] | − (“−” indicates less than 50% inhibition at 10 μM) | − (“−” indicates less than 50% inhibition at 10 μM) | + (“+” indicates greater than 50% inhibition at 10 μM) | + (“+” indicates greater than 50% inhibition at 10 μM) | + (“+” indicates greater than 50% inhibition at 10 μM) | + (“+” indicates greater than 50% inhibition at 10 μM) | − (“−” indicates less than 50% inhibition at 10 μM) | + (“+” indicates greater than 50% inhibition at 10 μM) | − (“−” indicates less than 50% inhibition at 10 μM) | + (“+” indicates greater than 50% inhibition at 10 μM) | − (“−” indicates less than 50% inhibition at 10 μM)
2 | N=C(N)NCC(=O)NC1C(OCc2ccc(Cl)cc2)OC(COCc2ccc(Cl)cc2)C(O)C1OCc1ccc(Cl)cc1 (stereo not shown) [compound 419] | − (“−” indicates less than 50% inhibition at 10 μM) | − (“−” indicates less than 50% inhibition at 10 μM) | + (“+” indicates greater than 50% inhibition at 10 μM) | + (“+” indicates greater than 50% inhibition at 10 μM) | + (“+” indicates greater than 50% inhibition at 10 μM) | + (“+” indicates greater than 50% inhibition at 10 μM) | − (“−” indicates less than 50% inhibition at 10 μM) | + (“+” indicates greater than 50% inhibition at 10 μM) | − (“−” indicates less than 50% inhibition at 10 μM) | + (“+” indicates greater than 50% inhibition at 10 μM) | − (“−” indicates less than 50% inhibition at 10 μM)
3 | N=C(N)NCC(=O)NC1C(OCc2ccc(Cl)cc2)OC(COCc2ccc3ccccc3c2)C(O)C1OCc1ccc2ccccc2c1 (stereo not shown) [compound 420] | − (“−” indicates less than 50% inhibition at 10 μM) | − (“−” indicates less than 50% inhibition at 10 μM) | + (“+” indicates greater than 50% inhibition at 10 μM) | + (“+” indicates greater than 50% inhibition at 10 μM) | + (“+” indicates greater than 50% inhibition at 10 μM) | − (“−” indicates less than 50% inhibition at 10 μM) | − (“−” indicates less than 50% inhibition at 10 μM) | + (“+” indicates greater than 50% inhibition at 10 μM) | − (“−” indicates less than 50% inhibition at 10 μM) | + (“+” indicates greater than 50% inhibition at 10 μM) | − (“−” indicates less than 50% inhibition at 10 μM)
4 | N=C(N)NCC(=O)NC1C(OCc2ccc(Cl)cc2)OC(COCc2ccccc2)C(O)C1OCc1ccc2ccccc2c1 (stereo not shown) [compound 421] | − (“−” indicates less than 50% inhibition at 10 μM) | − (“−” indicates less than 50% inhibition at 10 μM) | + (“+” indicates greater than 50% inhibition at 10 μM) | + (“+” indicates greater than 50% inhibition at 10 μM) | + (“+” indicates greater than 50% inhibition at 10 μM) | + (“+” indicates greater than 50% inhibition at 10 μM) | − (“−” indicates less than 50% inhibition at 10 μM) | + (“+” indicates greater than 50% inhibition at 10 μM) | − (“−” indicates less than 50% inhibition at 10 μM) | + (“+” indicates greater than 50% inhibition at 10 μM) | − (“−” indicates less than 50% inhibition at 10 μM)
5 | N=C(N)NCC(=O)NC1C(OCc2ccc(Cl)cc2)OC(COCc2ccc(Cl)cc2)C(O)C1OCc1ccc2ccccc2c1 (stereo not shown) [compound 422] | − (“−” indicates less than 50% inhibition at 10 μM) | − (“−” indicates less than 50% inhibition at 10 μM) | + (“+” indicates greater than 50% inhibition at 10 μM) | + (“+” indicates greater than 50% inhibition at 10 μM) | + (“+” indicates greater than 50% inhibition at 10 μM) | + (“+” indicates greater than 50% inhibition at 10 μM) | − (“−” indicates less than 50% inhibition at 10 μM) | + (“+” indicates greater than 50% inhibition at 10 μM) | − (“−” indicates less than 50% inhibition at 10 μM) | + (“+” indicates greater than 50% inhibition at 10 μM) | − (“−” indicates less than 50% inhibition at 10 μM)
